The results in this text go back to patent US20260108546A1 (ELI LILLY AND COMPANY, priority 2024, published 2026).

This test concerns the target T1, hGIP-R (Homo sapiens, UniProt P48546).
T1 construct: expressed in transfected cells; host or cells: HEK-293 clonal cell lines
T1 sequence (P48546 22-466): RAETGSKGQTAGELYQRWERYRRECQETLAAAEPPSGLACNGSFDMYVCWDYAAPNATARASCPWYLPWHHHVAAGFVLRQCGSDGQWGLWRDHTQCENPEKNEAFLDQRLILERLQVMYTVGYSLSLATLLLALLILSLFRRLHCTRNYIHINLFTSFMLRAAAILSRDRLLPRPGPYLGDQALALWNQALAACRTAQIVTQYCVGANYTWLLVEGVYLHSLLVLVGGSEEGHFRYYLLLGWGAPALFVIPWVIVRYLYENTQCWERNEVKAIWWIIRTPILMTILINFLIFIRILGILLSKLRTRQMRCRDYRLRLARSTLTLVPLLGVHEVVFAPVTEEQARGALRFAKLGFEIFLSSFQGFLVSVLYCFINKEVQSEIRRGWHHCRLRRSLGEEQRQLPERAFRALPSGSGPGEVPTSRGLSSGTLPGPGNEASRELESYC
The test is described as follows: Functional hGIP-R Assay (cAMP formation, HTRF). It is filed as cell-based. To be noted: for Emax: cAMP efficacy, percent of maximal response to GIP(1-42)OH, 37° C., 0.1% bovine casein, arithmetic mean ± SEM; for EC50: cAMP potency, HEK-293 cells expressing hGIP-R, incubated at 37° C. in the presence of 0.1% bovine casein, geometric mean, read-out: Human GIP-R EC50, nM (SEM, n). The method, boiled down: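 Relative EC50 and Emax came from four-parameter logistic fits of cAMP as a percent of the human GIP (1-42) OH maximal response. The cAMP was measured by competitive HTRF after 30 min, 37 °C compound exposure of hGIP-R HEK-293 clones in IBMX (250 μM)-containing medium.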

On to `Cn1cc(C[C@@H](NC(=O)[C@H]2C[C@@H]2c2ccc(-c3cnc4nc(C(F)(F)F)cn4c3)cc2)C(=O)NC(C)(C)Cn2nc(C(F)(F)F)cc2-c2nnc[nH]2)cn1` [Example 25, (1S,2S)-N-((R)-1-((1-(5-(4H-1,2,4-Triazol-3-yl)-3-(trifluoromethyl)-1H-pyrazol-1-yl)-2-methylpropan-2-yl)amino)-3-(1-methyl-1H-pyrazol-4-yl)-1-oxopropan-2-yl)-2-(4-(2-(trifluoromethyl)imidazo [1,2-a]pyrimidin-6-yl)phenyl) cyclopropane-1-carboxamide], for which the Emax (usually the size of the effect at its maximum, as opposed to the concentration needed) was 142 ± 17.3% and the EC50 (in general, the concentration needed to bring the measured effect to its halfway point) worked out at 82.7 nM.

On to `Cn1cc(C[C@@H](NC(=O)[C@H]2C[C@@H]2c2ccc(-c3cnc4nc(C(F)(F)F)cn4c3)cc2)C(=O)NC(C)(C)Cn2nc(C(F)(F)F)cc2-c2cn[nH]n2)cn1` [Example 26, (1S,2S)-N-((R)-1-((1-(5-(2H-1,2,3-Triazol-4-yl)-3-(trifluoromethyl)-1H-pyrazol-1-yl)-2-methylpropan-2-yl)amino)-3-(1-methyl-1H-pyrazol-4-yl)-1-oxopropan-2-yl)-2-(4-(2-(trifluoromethyl)imidazo [1,2-a]pyrimidin-6-yl)phenyl) cyclopropane-1-carboxamide], for which the Emax was found to be 132 ± 15.5% and the EC50 came to 17.4 nM.

As for `Cn1cc(C[C@@H](NC(=O)[C@H]2C[C@@H]2c2ccc(-c3cnc4nccn4c3)cc2)C(=O)NC(C)(C)Cn2nc(C(F)(F)F)cc2-c2cn[nH]n2)cn1` [Example 27, (1S,2S)-N-((R)-1-((1-(5-(2H-1,2,3-Triazol-4-yl)-3-(trifluoromethyl)-1H-pyrazol-1-yl)-2-methylpropan-2-yl)amino)-3-(1-methyl-1H-pyrazol-4-yl)-1-oxopropan-2-yl)-2-(4-(imidazo[1,2-a]pyrimidin-6-yl)phenyl) cyclopropane-1-carboxamide], the maximal response (Emax) was 99.3% and the EC50 stood at 61.6 nM.

In the case of `Cn1cc(C[C@@H](NC(=O)[C@H]2C[C@@H]2c2ccc(-c3cnc4nccn4c3)cc2)C(=O)NC(C)(C)Cn2nc(C(F)(F)F)cc2-c2cnn(C)c2)cn1` [Example 28, (1S,2S)-2-(4-(Imidazo[1,2-a]pyrimidin-6-yl)phenyl)-N-((R)-1-((2-methyl-1-(1′-methyl-5-(trifluoromethyl)-1′H,2H-[3,4′-bipyrazol]-2-yl)propan-2-yl)amino)-3-(1-methyl-1H-pyrazol-4-yl)-1-oxopropan-2-yl)cyclopropane-1-carboxamide], the Emax was determined as 91.9 ± 0.597% and the EC50 came to 20.5 nM.

As to `CN(C(=O)[C@H]1C[C@@H]1c1ccc(-c2cnc3nn(C)cc3c2)cc1)[C@H](Cc1cnn(C)c1)C(=O)NC(C)(C)Cn1nc(C(F)(F)F)cc1-c1n[nH]c(=O)s1` [Example 30, (1S,2S)-N-Methyl-N-((R)-1-((2-methyl-1-(5-(5-oxo-4,5-dihydro-1,3,4-thiadiazol-2-yl)-3-(trifluoromethyl)-1H-pyrazol-1-yl)propan-2-yl)amino)-3-(1-methyl-1H-pyrazol-4-yl)-1-oxopropan-2-yl)-2-(4-(2-methyl-2H-pyrazolo[3,4-b]pyridin-5-yl)phenyl) cyclopropane-1-carboxamide], the Emax was 95.2 ± 0.936% and the EC50 is 198 nM.

Consider `CN(C(=O)[C@H]1C[C@@H]1c1ccc(-c2cnc3nn(C)cc3c2)cc1)[C@H](Cc1cnn(C)c1)C(=O)NC(C)(C)Cn1nc(C(F)(F)F)cc1-c1ccc(=O)n(C)c1` [Example 31, (1S,2S)-N-Methyl-N-((R)-1-((2-methyl-1-(5-(1-methyl-6-oxo-1,6-dihydropyridin-3-yl)-3-(trifluoromethyl)-1H-pyrazol-1-yl)propan-2-yl)amino)-3-(1-methyl-1H-pyrazol-4-yl)-1-oxopropan-2-yl)-2-(4-(2-methyl-2H-pyrazolo[3,4-b]pyridin-5-yl)phenyl) cyclopropane-1-carboxamide], for which the Emax turned out to be 117 ± 4.92% and the EC50 is 152 nM.

On to `CN(C(=O)[C@H]1C[C@@H]1c1ccc(-c2cnc3nn(C)cc3c2)cc1)[C@H](Cc1cnn(C)c1)C(=O)NC(C)(C)Cn1nc(C(F)(F)F)cc1-c1ccc[nH]c1=O` [Example 32, (1S,2S)-N-Methyl-N-((R)-1-((2-methyl-1-(5-(2-oxo-1,2-dihydropyridin-3-yl)-3-(trifluoromethyl)-1H-pyrazol-1-yl)propan-2-yl)amino)-3-(1-methyl-1H-pyrazol-4-yl)-1-oxopropan-2-yl)-2-(4-(2-methyl-2H-pyrazolo[3,4-b]pyridin-5-yl)phenyl) cyclopropane-1-carboxamide], for which the Emax was 119% and the EC50 was determined as 93.5 nM.

In the case of `CN(C(=O)[C@H]1C[C@@H]1c1ccc(-c2cnc3nn(C)cc3c2)cc1)[C@H](Cc1cnn(C)c1)C(=O)NC(C)(C)Cn1nc(C(F)(F)F)cc1-c1cccc(=O)[nH]1` [Example 33, (1S,2S)-N-Methyl-N-((R)-1-((2-methyl-1-(5-(6-oxo-1,6-dihydropyridin-2-yl)-3-(trifluoromethyl)-1H-pyrazol-1-yl)propan-2-yl)amino)-3-(1-methyl-1H-pyrazol-4-yl)-1-oxopropan-2-yl)-2-(4-(2-methyl-2H-pyrazolo[3,4-b]pyridin-5-yl)phenyl) cyclopropane-1-carboxamide], the Emax came to 108% and the EC50 turned out to be 133 nM.

On to `CN(C(=O)[C@H]1C[C@@H]1c1ccc(-c2cnc3nccn3c2)cc1)[C@H](Cc1cnn(C)c1)C(=O)NC(C)(C)Cn1nc(C(F)(F)F)cc1-c1ccc(=O)n(C)c1` [Example 34, (1S,2S)-2-(4-(imidazo[1,2-a]pyrimidin-6-yl)phenyl)-N-methyl-N-((R)-1-((2-methyl-1-(5-(1-methyl-6-oxo-1,6-dihydropyridin-3-yl)-3-(trifluoromethyl)-1H-pyrazol-1-yl)propan-2-yl)amino)-3-(1-methyl-1H-pyrazol-4-yl)-1-oxopropan-2-yl)cyclopropane-1-carboxamide], for which the Emax is 113 ± 12.3% and the EC50 was determined as 183 nM.

Take `CN(C(=O)[C@H]1C[C@@H]1c1ccc(NC(=O)C2CCC(F)(F)CC2)cc1)[C@H](Cc1cnn(C)c1)C(=O)NC(C)(C)Cn1nc(C(F)(F)F)cc1-c1ccc(=O)n(C)c1` [Example 35, 4,4-Difluoro-N-(4-((1S,2S)-2-(methyl((R)-1-((2-methyl-1-(5-(1-methyl-6-oxo-1,6-dihydropyridin-3-yl)-3-(trifluoromethyl)-1H-pyrazol-1-yl)propan-2-yl)amino)-3-(1-methyl-1H-pyrazol-4-yl)-1-oxopropan-2-yl)carbamoyl)cyclopropyl)phenyl)cyclohexane-1-carboxamide]: the Emax is 75 ± 4.1% and the EC50 was 135 nM.

With `CN(C(=O)[C@H]1C[C@@H]1c1ccc(NC(=O)Nc2ccc(F)cc2)cc1)[C@H](Cc1cnn(C)c1)C(=O)NC(C)(C)Cc1ccc(F)cc1` [Example 36, (1S,2S)-N-((R)-1-((1-(4-Fluorophenyl)-2-methylpropan-2-yl)amino)-3-(1-methyl-1H-pyrazol-4-yl)-1-oxopropan-2-yl)-2-(4-(3-(4-fluorophenyl)ureido)phenyl)-N-methylcyclopropane-1-carboxamide], the Emax was determined as 94 ± 11.1% and the EC50 worked out at 104 nM.

Consider `Cn1cc2cc(-c3ccc([C@H]4C[C@@H]4C(=O)N[C@H](Cc4cnc5ncccn45)C(=O)NC(C)(C)Cn4nc(C(F)(F)F)cc4C4CC4)cc3)cnc2n1` [Example 37, (1S,2S)-N-((R)-1-((1-(5-Cyclopropyl-3-(trifluoromethyl)-1H-pyrazol-1-yl)-2-methylpropan-2-yl)amino)-3-(imidazo[1,2-a]pyrimidin-3-yl)-1-oxopropan-2-yl)-2-(4-(2-methyl-2H-pyrazolo[3,4-b]pyridin-5-yl)phenyl) cyclopropane-1-carboxamide], for which the Emax was 77.4 ± 5.92% and the EC50 came out at 10.8 nM.

With `Cn1cc(-c2cc(C(F)(F)F)nn2CC(C)(C)NC(=O)[C@@H](Cc2cnc3ncccn23)NC(=O)[C@H]2C[C@@H]2c2ccc(-c3cnc4nccn4c3)cc2)cn1` [Example 38], the Emax stood at 92.1% and the EC50 was found to be 7.93 nM.

`CC(C)(Cn1ccc(C(F)(F)F)n1)NC(=O)[C@@H](Cc1cnc2ncccn12)NC(=O)[C@H]1C[C@@H]1c1ccc(-c2cnc3nccn3c2)cc1` [Example 39, (1S,2S)-N-((R)-3-(Imidazo[1,2-a]pyrimidin-3-yl)-1-((2-methyl-1-(3-(trifluoromethyl)-1H-pyrazol-1-yl)propan-2-yl)amino)-1-oxopropan-2-yl)-2-(4-(imidazo[1,2-a]pyrimidin-6-yl)phenyl) cyclopropane-1-carboxamide]: the Emax was found to be 77.8 ± 2.57% and the EC50 was found to be 63.1 nM.

As for `CC(C)(Cn1nc(C(F)(F)F)cc1C1CC1)NC(=O)[C@@H](Cc1cnc2ncccn12)NC(=O)[C@H]1C[C@@H]1c1ccc(NC(=O)C2CC(F)(F)C2)cc1` [Example 40, N-(4-((1S,2S)-2-(((R)-1-((1-(5-cyclopropyl-3-(trifluoromethyl)-1H-pyrazol-1-yl)-2-methylpropan-2-yl)amino)-3-(imidazo[1,2-a]pyrimidin-3-yl)-1-oxopropan-2-yl)carbamoyl)cyclopropyl)phenyl)-3,3-difluorocyclobutane-1-carboxamide], the Emax came to 60.7 ± 0.306% and the EC50 is 3.55 nM.
